Consider 4 compounds from patent publication US12338266B2 (GENETIC S.P.A., priority 2019, dated 2025).

The target in data set [1] is T1, glucocorticoid receptor (Homo sapiens, UniProt P04150).
T1 sequence (P04150 1-777): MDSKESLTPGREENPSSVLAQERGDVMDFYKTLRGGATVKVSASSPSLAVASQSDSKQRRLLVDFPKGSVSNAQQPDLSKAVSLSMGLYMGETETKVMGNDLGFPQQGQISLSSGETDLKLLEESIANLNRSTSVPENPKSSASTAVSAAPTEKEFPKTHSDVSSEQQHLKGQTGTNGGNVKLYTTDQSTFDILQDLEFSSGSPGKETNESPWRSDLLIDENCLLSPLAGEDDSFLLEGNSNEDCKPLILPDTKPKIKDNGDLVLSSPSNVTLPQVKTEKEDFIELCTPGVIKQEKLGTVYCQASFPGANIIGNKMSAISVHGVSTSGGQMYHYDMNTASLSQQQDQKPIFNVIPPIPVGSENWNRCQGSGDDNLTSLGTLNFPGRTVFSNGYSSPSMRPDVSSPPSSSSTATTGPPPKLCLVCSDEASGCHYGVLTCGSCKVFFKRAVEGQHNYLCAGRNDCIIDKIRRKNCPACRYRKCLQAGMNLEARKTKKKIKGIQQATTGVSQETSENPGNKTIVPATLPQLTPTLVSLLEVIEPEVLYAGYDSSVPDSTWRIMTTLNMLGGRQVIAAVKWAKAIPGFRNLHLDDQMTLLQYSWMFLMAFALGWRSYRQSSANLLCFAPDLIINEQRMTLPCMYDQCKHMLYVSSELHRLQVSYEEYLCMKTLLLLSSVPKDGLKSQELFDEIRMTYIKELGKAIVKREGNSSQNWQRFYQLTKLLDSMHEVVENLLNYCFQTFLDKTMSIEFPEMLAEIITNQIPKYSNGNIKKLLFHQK
As to conditions: higher than the parent compound; cited from earlier work.

For data set [2] the following is noted: 10 mg orally once daily at bedtime; cited from earlier work.
Data set [3] relates to mice with OVA-induced allergic asthma. Kind of data set: Total and differential leukocyte counts in BAL fluid (Protocol-2). The format is in vivo, Balb/c mice. As to conditions: 4 weeks; for BAL eosinophils (OVA-induced increase): 100 nmol/animal/day intranasal, FIG. 10. The protocol:
(§1) Male Balb/c SPF mice (26*2 g, 6 week-old) were purchased from the animal house facilities at the Faculty of Medicine (University of Sāo Paulo, Brazil). They were group-housed in a temperature-controlled room at 22° C. with a 12/12-hour light/dark cycle and allowed free access to food and water. The study is in agreement with the Ethical Principles for Animal Research established by the Brazilian College for Animal Experimentation (COBEA). According to the internal laboratory rules, euthanasia will be performed if severe distress related to the test agents developed during the experiment. Mice were sensitized with two subcutaneous injections of 0.2 ml of OVA/Al(OH)3, with an interval of 7 days (Sham animals received the Al(OH)3 suspension in PBS with no OVA). Chicken egg-white ovalbumin (OVA; grade V, cat. A5503, Sigma Chemical Co., St. Louis, Mo.) was dissolved in sterile phosphate buffered saline (PBS) solution (50 μg/ml) and Al(OH)3 was added (at 8 mg/ml). This mix was used to induce the allergic sensitization of the animals by subcutaneous injection. OVA was dissolved at 1% in sterile PBS solution and this solution was nebulized (as the immunological challenges). Seven days after the second sensitization (i.e., 3rd week), the animals were nebulized twice a week with the 1% OVA solution (Sham and untreated OVA groups were nebulized with PBS) during 20 minutes for the next 4 weeks. Thirty minutes before the challenges (OVA nebulization) and daily during the next 4 weeks, mice were intra-nasally treated (10 μl/animal as 5 μl/nostril) with the respective compounds/vehicle. […] Animals were killed at selected time points by overdose of enflurane and BAL and blood collected.
After Penh evaluation, the mice were anesthetized with inhaled isofluorane (5% v/v in O2) and blood samples were collected from the descending abdominal aorta. The mice were then euthanized by exsanguination and bronchoalveolar lavage (BAL) was performed by exposing and cannulating the trachea with a polyethylene tube (1 mm outer diameter) connected to a syringe. The lungs were washed by flushing 300 μL of heparin-containing PBS solution (20 UI/mL). The retrieved BAL lavage aliquots were obtained and the same procedure was repeated four additional times. The samples were centrifuged (1000 g for 10 min) and the cell pellet was resuspended in 200 μL of PBS solution, Total cell counts were determined using a Neubauer chamber, and differential counting was carried out in cytospin (Fanem Mod 2400; Sāo Paulo, Brazil) preparations stained with May-Grünwald dye. Leukocytes were classified based on morphological criteria.

The conditions of data set [4]: intranasal administration at recommended doses; cited from earlier work.
The conditions of data set [5]: in vivo; cited from earlier work.
The test system of data set [6] is mice with OVA-induced allergic asthma. Nature of the data set: Plasma IgE levels by ELISA in OVA-sensitized mice (Protocol-1). It is filed as in vivo, Balb/c mice. The settings on record: 1 mg/kg i.p.; FIG. 6C, 7C. How it is done:
Balb/c mice (8-9 weeks old, Charles River, Calco, Italy) were housed in the animal care facility at the Department of Pharmacy of the University of Naples. Italy in a controlled environment (temperature 21±2° C. and humidity 60±10%) and provided with standard rodent chow and water. All animals were allowed to acclimate for four days prior to experiments and were subjected to 12 h light-12 h dark schedule. Each mouse was assigned an identity number and randomtzed to different groups so that all experiments were carried out in a blinded manner. The experimental procedures were approved by the Italian Ministry according to International and National law and policies (EU Directive 2010/63/EU and Italian DL 26/2014 for animal experiments, ARRIVE guidelines and the Basel declaration including the 3R concept). Animal studies are reported in compliance with the ARRIVE guidelines. Balb/c mice is the most widely mouse strain used to study asthma-like features in vivo and to investigate the undedying molecular and cellular mechanisms of allergen sensitization. Mice were treated subcutaneously (s.c.) with 0.4 mL (100 μg) of ovalbumin (OVA) complexed with alum (13 mg mL^−1) (OVA group) at day 0 and 7. Chicken egg-white ovalbumin (OVA: grade V. cat. A5503, Sigma Chemical Co., St. Louis, MO) was dissolved in sterile phosphate buffered saline (PBS) solution (250 μg/1 ml) and Al(OH)3 was added (at 13 mg/ml). This mix was used to induce the allergic sensitization of the animals by subcutaneous injection. OVA was dissolved at 3% in sterile PBS solution and this solution was nebulized (as the immunological challenges). At day 21 mice were exposed to OVA challenge for three days and then sacrificed. This experimental procedure induces in the mice an increase in plasma IgE levels and this effect is by itself sufficient to induce a significant increase in bronchial hyper-responsiveness and pulmonary inflammation, typical hallmarks of asthma. A group of animals was treated s.c. with saline (vehicle group). […] Animals were killed at selected time points by overdose of enflurane and bronchi and blood collected.
Blood was collected by intracardiac puncture using citrate as anticoagulant. Plasma was obtained by centrifugation at 800×g at 4′C for 10 minutes and immediately frozen at −80° C. Total IgE levels were measured by means of ELISA using matched antibody pairs (BD Biosciences Pharmingen San Jose, Calif.).
For orientation: ELISA stands for enzyme-linked immunosorbent assay.

Data set [7] shares this test system. Nature of the data set: Lung hyperreactivity / Penh by whole body plethysmography (Protocol-2). It is filed as in vivo, Balb/c mice. The settings on record: for basal Penh measurement (non-challenged with methacholine): FIG. 9B. The protocol: as §1
Airway responsiveness in conscious, spontaneously breathing animals was measured at the end of the 6th week (i.e., after 4 weeks OVA challenges+treatments), 24 h after the last OVA/PBS challenge via whole body plethysmography (Buxco Europe Ltd, Winchester, UK). Experiments were carried out in a quiet room by an investigator who was unaware of the nature of treatments. Aerosolized saline (50 μl/mouse during 60 s) and then the muscarinic agonist metacholine (MCh) at increasing concentrations (3.12, 6.25, 12.5 and 25.0 mg/ml in PBS) was nebulized through an inlet of the main chamber for 3 min each to induce bronchoconstriction and readings were taken and averaged for 6 min following each nebulization. After 20 min. the baseline values usually returned at the end of this period. Enhanced pause (Penh) was measured as an indicator of bronchoconstriction and consequent increase of airway resistance as: Penh=[(expiration time/relaxation time)−1][…].

“Also recorded” adds a separate entry of the source.

Take `C[C@]12C=CC(=O)C=C1CC[C@@H]1[C@@H]2[C@@H](O)C[C@@]2(C)[C@H]1C[C@H]1O[C@@H](C3CCCCC3)O[C@]12C(=O)CO` [Des-ciclesonide, C21-desisobutyryl-ciclesonide]: in data set [1], the “affinity for the glucocorticoid receptor relative to the parent compound (ciclesonide)” value was 120 times.

As to `CC(C)(O)c1ccccc1CC[C@@H](SCC1(CC(=O)[O-])CC1)c1cccc(/C=C/c2ccc3ccc(Cl)cc3n2)c1.[Na+]` [Montelukast sodium, (R,E)-2-(1-((1-(3-(2-(7-chloroquinolin-2-yl)vinyl)phenyl)-3-(2-(2-hydroxypropan-2-yl)phenyl)propylthio)-methyl)cyclopropyl)acetic acid monosodium salt], in data set [2], the “variables of asthma control (FEV1, daytime and night time symptom scores, as-needed β-agonist use)” value is on record as “improvement in variables of asthma control”.

For the compound `CC(C)C(=O)OCC(=O)[C@@]12O[C@H](C3CCCCC3)O[C@@H]1C[C@H]1[C@@H]3CCC4=CC(=O)C=C[C@]4(C)[C@H]3[C@@H](O)C[C@@]12C` [ciclesonide, (11β,16α)-16,17-[[(R)-cyclohexylmethylene]bis(oxy)]-11-hydroxy-21-(2-methyl-1-oxopropoxy)pregna-1,4-diene-3,20-dione], the “BAL eosinophils (OVA-induced increase)” value was “significantly reduced” in data set [3] and “significantly reduced this increase” in data set [3] (listed as Ciclesonide). Besides, the “serum concentrations of ciclesonide” value in data set [4] was “negligible serum concentrations”. Also, in data set [5], the cortisol suppression entry is on record as “comparable with placebo”. In addition, the “allergen induced plasma IgE increase” value in data set [6] was “significantly inhibited allergen induced IgE increase”. Further, the “airway responsiveness, Penh (basal, methacholine Emax and AUC)” value in data set [7] (100 nmol/day/animal intranasal, daily for 4 weeks, FIG. 8A-D) is “Significant reduction of this response; also recorded: significantly reduced”.

As for `CC(C)(O)c1ccccc1CC[C@@H](SCC1(CC(=O)O)CC1)c1cccc(/C=C/c2ccc3ccc(Cl)cc3n2)c1` [montelukast, (R,E)-2-(1-((1-(3-(2-(7-chloroquinolin-2-yl)vinyl)phenyl)-3-(2-(2-hydroxypropan-2-yl)phenyl)propylthio)-methyl)cyclopropyl)acetic acid], the “BAL eosinophils / eosinophil recruitment to the lungs” value in data set [3] (10 nmol/animal/day intranasal, FIG. 11) is “significantly reduced; also recorded: significant inhibitory effects on eosinophil recruitment to the lungs”. For the same compound, the “allergen induced plasma IgE increase” value in data set [6] is “did not affect IgE”. The “basal Penh measurement (non-challenged with methacholine)” value in data set [7] (10 nmol/animal/day intranasal, daily for 4 weeks) is listed as “significantly reduced the basal Penh measurement”; in data set [7] (10 nmol/animal/day intranasal, daily for 4 weeks, listed as Montelukast), “slightly decrease the basal (non-challenged with methacholine) response”. For the same compound, in data set [7] (10 nmol/animal/day intranasal, FIG. 9C-D), the “Penh parameters following methacholine challenge (Emax, AUC)” value is “did not affect the parameters measured following methacholine challenge”. The “direct effects on lung function” value in data set [7] (10 nmol/day/animal intranasal) is listed as “negligible direct effects on lung function”.
